Test results taken from patent publication US12649751B2 (Arcus Biosciences, Inc., priority 2022, dated 2026).
Read-outs that look alike come from different tables or passages of the source.

Key:
[1] = test system: p-SLP-76 (Ser376) in Jurkat cells; experiment: pSLP76 Cellular Assay (AlphaLISA SureFire Ultra p-SLP-76 (Ser376), anti-CD3 activated Jurkat cells); type: cell-based; conditions: Homo sapiens, read-out: Cellular Potency
Description: pSLP76 cellular assay was performed using Jurkat cells and the AlphaLISA SureFire Ultra p-SLP-76 (Ser376) Assay Kit (PerkinElmer). Dose-response assays were performed in Greiner® Low Volume 384-well assay plates containing 200 nL of 22 serial 2-fold compound dilutions using Bravo and Echo. Jurkat cells were grown in RPMI-1640 supplemented with 10% FBS and PSG. The day prior to the assay, the cells were collected, and serum starved overnight in Opti-MEM. The day of the assay, the cells were collected and resuspended in HBSS. 100,000 cells/well were added to the compound plates and after a short spin, the plates were incubated at 37° C. for 1 h. The cells were activated by adding 10 μL of 0.025 mg/ml anti-CD3. Plates were then incubated at 37° C. for 45 min. Stimulation was terminated by adding […], followed by a brief centrifugation and 60 min of shaking at 300 rpm. Cell lysates (10 μL) were transferred to 384-well White Opti-plates and the samples were processed according to the manufacturer's directions. The fluorescence signal from pSLP76 was measured at 570 nm using Envision plate reader. IC50 values were determined by fitting the data to a standard 4-parameter logistic equation. The results are summarized in the Cellular Potency columns in Tables 4 and 5 below (Cellular Potency).

HPK1 = HPK1 (Homo sapiens, UniProt Q92918); experiment: HPK1 Biochemical Assay (ADP-Glo luminescence; low ATP 10 μM or high ATP 200 μM)
Sequence of HPK1 (Q92918 whole entry, species assumed): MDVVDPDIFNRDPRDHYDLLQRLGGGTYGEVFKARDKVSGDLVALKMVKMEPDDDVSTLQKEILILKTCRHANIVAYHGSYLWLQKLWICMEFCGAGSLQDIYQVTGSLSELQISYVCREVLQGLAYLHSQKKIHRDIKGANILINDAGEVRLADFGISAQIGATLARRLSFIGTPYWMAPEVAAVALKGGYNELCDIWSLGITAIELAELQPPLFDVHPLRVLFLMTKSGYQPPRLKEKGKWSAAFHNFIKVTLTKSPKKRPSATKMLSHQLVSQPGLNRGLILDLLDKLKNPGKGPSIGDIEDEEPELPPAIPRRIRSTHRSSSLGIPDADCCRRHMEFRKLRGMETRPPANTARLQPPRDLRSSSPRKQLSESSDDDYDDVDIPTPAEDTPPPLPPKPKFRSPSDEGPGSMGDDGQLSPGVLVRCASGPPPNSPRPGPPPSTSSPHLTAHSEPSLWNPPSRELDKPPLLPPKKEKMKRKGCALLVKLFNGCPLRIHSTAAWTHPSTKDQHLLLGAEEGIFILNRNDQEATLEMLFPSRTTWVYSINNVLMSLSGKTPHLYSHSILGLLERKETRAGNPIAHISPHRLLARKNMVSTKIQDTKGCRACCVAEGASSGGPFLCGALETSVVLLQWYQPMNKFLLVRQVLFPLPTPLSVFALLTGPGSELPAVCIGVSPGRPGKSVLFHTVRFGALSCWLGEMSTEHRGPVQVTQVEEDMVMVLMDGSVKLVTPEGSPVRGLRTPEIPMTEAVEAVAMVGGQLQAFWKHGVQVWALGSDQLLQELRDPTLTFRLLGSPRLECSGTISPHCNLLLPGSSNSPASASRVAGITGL

[2] = pSLP76 (Ser376) AlphaLISA, anti-CD3 activated Jurkat cells
[3] = HPK1 ADP-Glo assay, high ATP (200 μM ATP, 5 nM HPK1), read-out: Biochemical Potency (high ATP)
[4] = Jurkat cells, anti-CD3 stimulation, pSLP76
[5] = 2 nM HPK1, 10 μM ATP, read-out: Biochemical Potency (low ATP)
[6] = HPK1 ADP-Glo assay, low ATP (10 μM ATP, 2 nM HPK1), read-out: Biochemical Potency (low ATP)

SMILES	IC50 [1, 2] [µM]	IC50 (HPK1; [3]) [µM]	IC50 [1, 4] [µM]	IC50 (HPK1; [5]) [µM]	IC50 (HPK1; [6]) [µM]
CO[C@H]1CCN(c2cc(-c3nc4cc(Nc5cc(C)nc(N6C[C@@H]7C[C@H]6CN7CCO)n5)ncc4s3)ccn2)C1 [Example 454]	0.1 to 1	< 0.1	–	–	–
Cc1cccnc1-c1nc2cc(Nc3ccc(C4CCOCC4)c(CN4CC[C@H](F)C4)n3)ncc2s1 [Example 214, 6-{[(3S)-3-Fluoropyrrolidin-1-yl]methyl}-N-[2-(3-methylpyridin-2-yl)-[1,3]thiazolo[5,4-c]pyridin-6-yl]-5-(oxan-4-yl)pyridin-2-amine]	–	–	0.1 to 1	< 0.1	–
Cc1cccnc1-c1nc2cc(Nc3ccc(C)c(N4C[C@@H]5C[C@H]4CN5C)n3)ncc2s1 [Example 101, 5-Methyl-6-[(1S,4S)-5-methyl-2,5-diazabicyclo[2.2.1]heptan-2-yl]-N-[2-(3-methylpyridin-2-yl)-[1,3]thiazolo[5,4-c]pyridin-6-yl]pyridin-2-amine]	–	–	0.1 to 1	< 0.1	–
Cn1cc(-c2nc3cc(Nc4ccc(N5CCOCC5)c(CN5CCCC5)n4)ncc3s2)cn1 [Example 24, N-[2-(1-Methyl-1H-pyrazol-4-yl)-[1,3]thiazolo[5,4-c]pyridin-6-yl]-5-(morpholin-4-yl)-6-[(pyrrolidin-1-yl)methyl]pyridin-2-amine]	–	–	0.1 to 1	< 0.1	–
CN1C[C@@H]2C[C@H]1CN2c1nccc(Nc2cc3nc(-c4cccc(S(=O)(=O)N(C)C)c4)sc3cn2)n1 [Example 415]	0.1 to 1	–	–	–	< 0.1
Cc1cc(Nc2cc3nc(-c4cccc(C(=O)N(C)[C@@H](C)CO)c4)sc3cn2)nc(N2C[C@@H]3C[C@H]2CN3CC2CC2)n1 [Example 560]	< 0.1	< 0.1	–	–	–
CC(C)c1cccnc1-c1nc2cc(Nc3cccc(N4C[C@@H]5C[C@H]4CN5C)n3)ncc2s1 [Example 93, 6-[(1S,4S)-5-Methyl-2,5-diazabicyclo[2.2.1]heptan-2-yl]-N-{2-[3-(propan-2-yl)pyridin-2-yl]-[1,3]thiazolo[5,4-c]pyridin-6-yl}pyridin-2-amine]	–	–	0.1 to 1	< 0.1	–
Cc1cccnc1-c1nc2cc(Nc3ccc(N4CCOCC4)c(CN4CCCC4)n3)ncc2s1 [Example 63, N-[2-(3-Methylpyridin-2-yl)-[1,3]thiazolo[5,4-c]pyridin-6-yl]-5-(morpholin-4-yl)-6-[(pyrrolidin-1-yl)methyl]pyridin-2-amine]	–	–	0.1 to 1	< 0.1	–
Cc1cc(Nc2cc3nc(-c4cnn(C)c4C(C)(C)O)sc3cn2)nc(N2C[C@@H]3C[C@H]2CN3C)n1 [Example 309, 2-{4-[6-(2-{(1S,4S)-5-methyl-2,5-diazabicyclo[2.2.1]hept-2-yl}-6-methyl-4-pyrimidinylamino)-3-thia-1,5-diaza-2-indenyl]-1-methyl-5-pyrazolyl}-2-propanol]	< 0.1	< 0.1	–	–	–
Cc1cc(Nc2cc3nc(-c4cncc(N5CCOCC5)c4)sc3cn2)nc(N2C[C@@H]3C[C@H]2CN3CCO)n1 [Example 477]	0.1 to 1	< 0.1	–	–	–
Cc1cc(Nc2cc3nc(-c4nncn4C)sc3cn2)nc(N2C[C@@H]3C[C@H]2CN3CCO)n1 [Example 299, 2-[(1S,4S)-5-(4-methyl-6-{[2-(4-methyl-4H-1,2,4-triazol-3-yl)-[1,3]thiazolo[5,4-c]pyridin-6-yl]amino}pyrimidin-2-yl)-2,5-diazabicyclo[2.2.1]heptan-2-yl]ethan-1-ol]	0.1 to 1	< 0.1	–	–	–
CCN1C[C@@H]2C[C@H]1CN2c1nc(C)cc(Nc2cc3nc(-c4nc(N)ccc4C)sc3cn2)n1 [Example 296, N-[2-(6-amino-3-methylpyridin-2-yl)-[1,3]thiazolo[5,4-c]pyridin-6-yl]-2-[(1S,4S)-5-ethyl-2,5-diazabicyclo[2.2.1]heptan-2-yl]-6-methylpyrimidin-4-amine]	< 0.1	< 0.1	–	–	–
Cc1cc(Nc2cc3nc(-c4cccc(C(=O)N(C)C)c4)sc3cn2)nc(N2C[C@@H]3C[C@H]2CN3C2CCN(S(C)(=O)=O)CC2)n1 [Example 331]	1 to 5	0.1 to 1	–	–	–
Cc1cc(Nc2cc3nc(-c4cncc(-c5ncc(F)cc5C)c4)sc3cn2)nc(N2C[C@@H]3C[C@H]2CN3C)n1 [Example 584]	0.1 to 1	< 0.1	–	–	–
Cc1cccnc1-c1nc2cc(Nc3cccc(C4CCN(C)CC4)n3)ncc2s1 [Example 115, 6-(1-Methylpiperidin-4-yl)-N-[2-(3-methylpyridin-2-yl)-[1,3]thiazolo[5,4-c]pyridin-6-yl]pyridin-2-amine]	–	–	> 5	< 0.1	–
Cc1cc(Nc2cc3nc(-c4ccnc(C5CCOCC5)c4)sc3cn2)nc(N2C[C@@H]3C[C@H]2CN3C)n1 [Example 480]	0.1 to 1	< 0.1	–	–	–
CCN1C[C@@H]2C[C@H]1CN2c1nc(C)cc(Nc2cc3nc(-c4cccc(S(=O)(=O)CC(C)C)c4)sc3cn2)n1 [Example 339]	0.1 to 1	< 0.1	–	–	–

SMILES	IC50 [1, 2] [µM]	IC50 (HPK1; [3]) [µM]	IC50 [1, 4] [µM]	IC50 (HPK1; [5]) [µM]	IC50 (HPK1; [6]) [µM]
Cc1cc(Nc2cc3nc(-c4ccnc(C5(O)CCCC5)c4)sc3cn2)nc(N2C[C@@H]3C[C@H]2CN3C)n1 [Example 397]	< 0.1	< 0.1	–	–	–
CCOCCN1C[C@@H]2C[C@H]1CN2c1nc(C)cc(Nc2cc3nc(-c4cccc(C(=O)N(C)C)c4)sc3cn2)n1 [Example 489]	0.1 to 1	< 0.1	–	–	–
Cc1cc(Nc2cc3nc(-c4cccc(C(=O)N(C)C5CCOC5)c4)sc3cn2)nc(N2C[C@@H]3C[C@H]2CN3CCO)n1 (stereo partly drawn) [Example 559]	0.1 to 1	–	–	–	–
CCN1C[C@@H]2C[C@H]1CN2c1nc(C)cc(Nc2cc3nc(-c4cccc(S(=O)(=O)C5CC5)c4)sc3cn2)n1 [Example 340]	< 0.1	< 0.1	–	–	–
Cc1cc(Nc2cc3nc(-c4cnn(C)c4-c4ccccc4)sc3cn2)nc(N2C[C@@H]3C[C@H]2CN3C)n1 [Example 368]	0.1 to 1	< 0.1	–	–	–
Cc1ccc(Nc2cc3nc(-c4ncccc4C)sc3cn2)nc1CN1CCC[C@H]1C [Example 44, 5-Methyl-N-[2-(3-methylpyridin-2-yl)-[1,3]thiazolo[5,4-c]pyridin-6-yl]-6-{[(2R)-2-methylpyrrolidin-1-yl]methyl}pyridin-2-amine]	–	–	> 5	< 0.1	–
CCN1C[C@@H]2C[C@H]1CN2c1nc(C)cc(Nc2cc3nc(-c4cccc(C(=O)N5CCC[C@H](C)C5)c4)sc3cn2)n1 [Example 512]	< 0.1	< 0.1	–	–	–
Cc1cc(Nc2cc3nc(-c4cccc5c4CCN(C)C5=O)sc3cn2)nc(N2C[C@@H]3C[C@H]2CN3C)n1 [Example 398]	1 to 5	0.1 to 1	–	–	–
Cc1c(-c2nc3cc(Nc4cccc(N5C[C@@H]6C[C@H]5CN6C)n4)ncc3s2)cnc2c1NCCO2 [Example 134, N-(2-{8-Methyl-1H,2H,3H-pyrido[2,3-b][1,4]oxazin-7-yl}-[1,3]thiazolo[5,4-c]pyridin-6-yl)-6-[(1S,4S)-5-methyl-2,5-diazabicyclo[2.2.1]heptan-2-yl]pyridin-2-amine]	–	–	1 to 5	< 0.1	–
c1cc(Nc2cc3nc(-c4ncco4)sc3cn2)nc(N2C[C@@H]3C[C@H]2CN3)n1 [Example 409]	0.1 to 1	< 0.1	–	–	< 0.1
Cc1cc(Nc2cc3nc(-c4ccc(=O)n(C)c4)sc3cn2)nc(N2C[C@@H]3C[C@H]2CN3C)n1 [Example 391]	1 to 5	0.1 to 1	–	–	–
Cc1cc(Nc2cc3nc(-c4ccnc(C(C)C)c4)sc3cn2)nc(N2C[C@@H]3C[C@H]2CN3CCO)n1 [Example 354]	< 0.1	< 0.1	–	–	–
Cc1cc(Nc2cc3nc(-c4cccc(C(=O)N(C)CC5CCOC5)c4)sc3cn2)nc(N2C[C@@H]3C[C@H]2CN3CCO)n1 (stereo partly drawn) [Example 557]	0.1 to 1	–	–	–	–
Cc1ccc(Nc2cc3nc(-c4ncccc4C)sc3cn2)nc1OC[C@H](N)C(C)(C)C [Example 180, 6-[(2R)-2-Amino-3,3-dimethylbutoxy]-5-methyl-N-[2-(3-methylpyridin-2-yl)-[1,3]thiazolo[5,4-c]pyridin-6-yl]pyridin-2-amine]	–	–	> 5	–	–
CN1C[C@@H]2C[C@H]1CN2c1cccc(Nc2cc3nc(-c4cccc(S(C)(=O)=O)c4)sc3cn2)n1 [Example 136, N-[2-(3-Methanesulfonylphenyl)-[1,3]thiazolo[5,4-c]pyridin-6-yl]-6-[(1S,4S)-5-methyl-2,5-diazabicyclo[2.2.1]heptan-2-yl]pyridin-2-amine]	–	–	0.1 to 1	–	–
Cc1cc(Nc2cc3nc(-c4cccc(C(=O)N(C)C5CCCOC5)c4)sc3cn2)nc(N2C[C@@H]3C[C@H]2CN3CCO)n1 (stereo partly drawn) [Example 542]	< 0.1	–	–	–	–
Cc1ccc(Nc2cc3nc(-c4cnn(CCO)c4)sc3cn2)nc1CN1CCCC1 [Example 40, 2-{4-[6-({5-Methyl-6-[(pyrrolidin-1-yl)methyl]pyridin-2-yl}amino)-[1,3]thiazolo[5,4-c]pyridin-2-yl]-1H-pyrazol-1-yl}ethan-1-ol]	–	–	–	< 0.1	–
